System: sodium channel in hTRPV1-N1E115 cells
Assay: FLIPR membrane potential assay of sodium channel response in hTRPV1-N1E115 cells, with (47° C.) or without (25° C.) heat activation of hTRPV1
Type: cell-based
Details: for hTRPV1-N1E Nav 0.1 mM (% inhibition) 25° C. / hTRPV1-N1E Nav 1 mM (% inhibition) 25° C.: 25° C. (no heat activation of hTRPV1); for hTRPV1-N1E Nav 0.1 mM (% inhibition) 47° C. / hTRPV1-N1E Nav 1 mM (% inhibition) 47° C.: 47° C. (heat activation of hTRPV1); for hTRPV1-N1E Nav 0.1 mM (% inhibition) 47° C., DMSO / IC50: 47° C.; for IC50: class symbols, read-out: hTRPV1-N1E IC50 (μM) 47° C.
Text: In one embodiment, a modified FLIPR® (Fluorometric Imaging Plate Reader) based assay system was developed which is capable of discriminating between non-specific versus hTRPV1-mediated entry of test compounds. Advantageously, the assay system utilizes heat activated opening of hTRPV1 channels followed by an assessment of internal sodium channel block. The assay allows a permanently charged compound to selectively enter through opened hTRPV1 channels and that compound's potency in inhibiting sodium channels from the cytoplasm side of the same cell can be assessed and quantified.
The assay is readily performed in multi-well assay plates into which cells in growth media are added and incubated under conditions which permit the formation of a confluent monolayer over a period of hours prior to the start of the assay. Conventional culture media and conditions may be utilized. Duplicate cell assay plates are prepared for each experiment.
The spent media from the cell seeded plates is removed on the day of the assay and replaced with Membrane potential Dye-Blue (Molecular Devices). The dye was prepared in assay buffer following manufacturer's instructions. The dye-loaded plate is incubated at room temperature (about 25° C.) for about 30 minutes in order to pre-load the cells with dye. Optionally, the cells may be loaded with the dye simultaneously with adding the test compounds.
The test compounds are diluted in the Assay Buffer and added to each well of a specific 384-well ‘compound plate’, which serves as a source plate for compound addition using the FLIPR® platform. The concentration of compounds in the compound-plate was adjusted to achieve the desired final concentration when added to the cells in the ‘cell-plate’. After completion of the dye incubation period, the dye loaded cell-plates and the compound source plates are inserted into the FLIPR® Tetra™ device with a 384 FLIPR® tip box (Molecular Devices, Inc.) according to manufacturer's instructions. The compounds are robotically added to the dye loaded cell-plates using software integral to the FLIPR® Tetra™ instrument.
Immediately following compound addition, hTRPV1 is activated, in one of the duplicate cell plates, by heating. Specifically, entire multi-well plate containing the compound-cells mixture is incubated at 47° C. for 10 minutes, after which they are returned to room temperature (about 25° C.) for a further 30 minutes. Heat activation of hTRPV1 was omitted from the replicate cell plate which was simply maintained at room temperature for the entire 40 minutes.
A membrane potential response is elicited in the dye- and compound-loaded cells by the addition of veratridine which is a known sodium channel ‘agonist’. As illustrated in an example herein, an agonist plate containing veratridine (Sigma) is prepared in advance and is inserted into suitable devices such as, e.g., the FLIPR® TETRA® device for a “2nd addition” as instructed by the manufacturer. The concentration of veratridine in the ‘agonist plate’ was adjusted to achieve a final concentration of 100 μM when added to the cells in the cell-plate. Final concentrations of veratridine greater or lesser than 100 μM may also be used but the signal measured by the FLIPR®^Tetra™ device or another suitable device may vary accordingly.
The exposure of the cells in the cell-plate to veratridine induces sodium channels in the cells to open and the resulting ion flux produces a membrane potential depolarization that is detected as a fluorescence signal by the FLIPR® ^Tetra™ Device. The activity of test compounds is determined by their ability to attenuate the veratridine-induced fluorescence signal, the most promising compounds are those that show an enhanced activity in the heat-activated cell plate over the non-heat-activated cell plate. […]

**Q.** With `CCC[N+]1(CCC)CCCC[C@H]1CCN(c1ccccc1)C1Cc2ccccc2C1.[I-]` [Example 1, (S)-1,1-dipropyl-2-[2-((indan-2-yl)(phenyl)amino)ethyl]piperidinium iodide] as the molecule, how does the “hTRPV1-N1E Nav 0.1 mM (% inhibition) 25° C., DMSO” value read?
**A.** Its value is 56%.

**Q.** And the “hTRPV1-N1E Nav 0.1 mM (% inhibition) 47° C., DMSO” value?
**A.** The value was 87 (N = 4, DMSO) %.

**Q.** How did the “hTRPV1-N1E Nav 0.1 mM (% inhibition) 25° C.” value turn out when `C[N+]1(C)CCCC1CCN(c1ccccc1)C1Cc2ccccc2C1.[I-]` (stereo not drawn) [Example 5, 1,1-dimethyl-2-[2-((indan-2-yl)(phenyl)amino)ethyl]pyrrolidinium iodide] was run?
**A.** Its value is 21%.

**Q.** What about the “hTRPV1-N1E Nav 0.1 mM (% inhibition) 47° C.” value of the same molecule?
**A.** The value was 50 (N = 2) %.

**Q.** And the IC50?
**A.** The IC50 was 10 to 100 µM.

**Q.** For `C[N+]1(C)CCCCC1CCCN(c1ccccc1)C1Cc2ccccc2C1.[I-]` (stereo not drawn) [Example 7], which “hTRPV1-N1E Nav 0.1 mM (% inhibition) 25° C.” value is on record?
**A.** The value was 27.3%.

**Q.** And the “hTRPV1-N1E Nav 0.1 mM (% inhibition) 47° C.” value?
**A.** The value was 57.9 (N = 2) %.

**Q.** And the “hTRPV1-N1E Nav 1 mM (% inhibition) 25° C.” value?
**A.** The value was “Insoluble”.

**Q.** And the “hTRPV1-N1E Nav 1 mM (% inhibition) 47° C.” value?
**A.** The value was “Insoluble”.

**Q.** And the IC50?
**A.** The IC50 was 10 to 100 µM.

**Q.** How did the “hTRPV1-N1E Nav 0.1 mM (% inhibition) 25° C.” value turn out when `C[N+]1(C)CCCC1CN(c1ccccc1)C1Cc2ccccc2C1.[I-]` (stereo not drawn) [Example 8, 1,1-dimethyl-2-[((indan-2-yl)(phenyl)amino)methyl]pyrrolidinium iodide] was run?
**A.** Its value is 6.5%.

**Q.** What about the “hTRPV1-N1E Nav 0.1 mM (% inhibition) 47° C.” value of the same molecule?
**A.** Its value is 22.7 (N = 2) %.

**Q.** And the “hTRPV1-N1E Nav 1 mM (% inhibition) 25° C.” value?
**A.** Its value is 39.9 (N = 2) %.

**Q.** And the “hTRPV1-N1E Nav 1 mM (% inhibition) 47° C.” value?
**A.** Its value is 69.5 (N = 2) %.

**Q.** How did the “hTRPV1-N1E Nav 0.1 mM (% inhibition) 25° C., DMSO” value turn out when `CCC[N+]1(CCC)CCCC[C@@H]1CCN(c1ccccc1)C1Cc2ccccc2C1.[I-]` [Example 12, (R)-1,1-Dipropyl-2-[2-((indan-2-yl)(phenyl)amino)ethyl]piperidinium iodide] was run?
**A.** The value was 49%.

**Q.** And the “hTRPV1-N1E Nav 0.1 mM (% inhibition) 47° C., DMSO” value?
**A.** The value was 87 (N = 4, DMSO) %.

**Q.** Which results are given for `CC[N+]1(CC)CCCCC1CN(c1ccccc1)C1Cc2ccccc2C1.[I-]` (stereo not drawn) [Example 13, 1,1-Diethyl-2-[((indan-2-yl)(phenyl)amino)methyl]piperidinium iodide]?
**A.** hTRPV1-N1E Nav 0.1 mM (% inhibition) 25° C.: 67%; hTRPV1-N1E Nav 0.1 mM (% inhibition) 47° C.: 99 (N = 2) %; hTRPV1-N1E Nav 1 mM (% inhibition) 25° C.: 64 (N = 2) %; hTRPV1-N1E Nav 1 mM (% inhibition) 47° C.: 92 (N = 2) %; IC50: 10 to 100 µM

**Q.** What does the source list for `C[N+]1(C)CCCCC1CCN(c1cccc(F)c1)C1Cc2ccccc2C1.[I-]` (stereo not drawn) [Example 14, 1,1-dimethyl-2-[2-((3-fluorophenyl)(indan-2-yl)amino)ethyl]piperidinium iodide]?
**A.** hTRPV1-N1E Nav 0.1 mM (% inhibition) 25° C.: 6.3%; hTRPV1-N1E Nav 0.1 mM (% inhibition) 47° C.: 76.7 (N = 3) %; hTRPV1-N1E Nav 1 mM (% inhibition) 25° C.: 3.8 (N = 3) %; hTRPV1-N1E Nav 1 mM (% inhibition) 47° C.: 25.3 (N = 3) %; IC50: 10 to 100 µM

**Q.** With `C[N+]1(C)CCCCC1CCN(c1ccc(F)cc1)C1Cc2ccccc2C1.[I-]` (stereo not drawn) [Example 15, 1,1-Dimethyl-2-[2-((4-fluorophenyl)(indan-2-yl)amino)ethyl]piperidinium iodide] as the molecule, how does the “hTRPV1-N1E Nav 0.1 mM (% inhibition) 25° C.” value read?
**A.** The value was 2.8%.

**Q.** And the “hTRPV1-N1E Nav 0.1 mM (% inhibition) 47° C.” value?
**A.** Its value is 75.2 (N = 3) %.

**Q.** What about the “hTRPV1-N1E Nav 1 mM (% inhibition) 25° C.” value of the same molecule?
**A.** Its value is 0.7 (N = 3) %.

**Q.** What about the “hTRPV1-N1E Nav 1 mM (% inhibition) 47° C.” value of the same molecule?
**A.** Its value is 35.0 (N = 3) %.

**Q.** What about the IC50 of the same molecule?
**A.** Its IC50 is 10 to 100 µM.

**Q.** What does the source list for `CC[N+]1(CC)CCCCC1CCN(c1cccc(F)c1)C1Cc2ccccc2C1.[I-]` (stereo not drawn) [Example 17, 1,1-diethyl-2-[2-((3-fluorophenyl)(indan-2-yl)amino)ethyl]piperidinium iodide]?
**A.** hTRPV1-N1E Nav 0.1 mM (% inhibition) 25° C.: 1%; hTRPV1-N1E Nav 0.1 mM (% inhibition) 47° C.: 86.1 (N = 3) %; hTRPV1-N1E Nav 1 mM (% inhibition) 25° C.: 6.1 (N = 3) %; hTRPV1-N1E Nav 1 mM (% inhibition) 47° C.: 28.9 (N = 3) %; IC50: 10 to 100 µM
